Measured values: patent publication US20240238237A1, “CONJUGATED LINOLEIC ACID SUPPLEMENTATION FOR DISEASE TREATMENT” (VIRGINIA TECH INTELLECTUAL PROPERTIES, INC., priority 2021, published 2024)

Columns and labels:
Type in all cases: in vivo, mouse
[1] = tested on: WT, PWS (Snord116m+/p−) and PWS-KO (Snord116m−/p−) mice; assay: Indirect calorimetry and home-cage activity (TSE system); conditions: end of study, TSE metabolic chamber
Protocol: Indirect calorimetry and locomotor activity measurements were performed using a Labmaster Mouse calorimetry and Locomotor system (TSE Systems, Bad Homburg, Germany) in the Metabolism Core Virginia Tech. VO2 consumption and VCO2 production in individual mice were measured using metabolic chambers. Air going into the TSE system was at 20.9% oxygen, 0.05% CO2, and the airflow rate was 0.4 L/min (Airgas, Christiansburg, VA, USA). Data were collected every 15 min. Body composition was measured, as described above, prior to assessment of the animals using the TSE system. A photobeam-based ac-tivity monitoring system detected and recorded ambulatory movements. The results were used to calculate the respiratory exchange ratio (RER) and total energy expenditure/gram lean mass. Energy expenditure (KJ/h) was calculated using the formula VO2×(3.815+(1.232×RER))×4.1868 and normalized to the lean mass determined by NMR. All parameters were measured continuously and simultaneously for 48 h after approximately 20 h of adaptation for single-housed mice. The average values for the last 24-48 h were used for analysis. To calculate hourly activity, the average of two-hour bins of activity from the last 24 h period was plotted. […]

[2] = tested on: C57Bl/6 WT, PWS, PWS-KO mice and 129v/J mice with a deletion of Nhlh2; assay: Rotarod balance and forward locomotion, Example 2; conditions: end of 12 week study, regardless of genotype
Protocol: At the end of the 12 week study, mice were acclimated to using a rotarod apparatus (FIG. 15A), for one day with grip tape on the rod, and two days without grip tape, at an acceleration of 2.65%, starting from 0) rpm to a maximum speed of 20 rpm. The average of four trials, spaced at least 5 minutes apart on day 4 of testing were the basis for the experimental result.

[3] = tested on: WT, PWS (Snord116m+/p−) and PWS-KO (Snord116m−/p−) mice; assay: Weekly body weight, fat and lean mass (NMR), rectal temperature and food intake, Example 1
Protocol: All animal protocols were approved by the Institutional Animal Care and Use Commit-tee at Virginia Tech. Mice with the Snord116 paternal deletion (B6[Cg]-Snord116tm1.1Uta/J Stock No: 008149|1-loxp (KO), Snord116del) were obtained from Jackson Laboratories and maintained on a C57Bl/6 background. Genotyping and breeding were performed as reported. WT mice for the study were siblings of either the PWS (Snord116m+/p−) or PWS-KO (Snord116m−/p−) mice. PWS mice were generated by crossing WT females and male mice who were Snord116m−/p+. Breeder males (Snord116m−/p+) were generated in separate crosses to inherited their deleted allele from a maternal chromosome so that they were considered phenotypically normal in regards to Snord116 expression. PWS-KO (Snord116m−/p−) mice were generated by using non-sibling male and female mice of the genotype Snord116m−/p+ who had inherited their deleted allele maternally. In this type of mating, 50% of the offspring would be heterozygous (and never used for mating or the study, as the origin of their deleted allele could not be determined), and 25% each would have WT alleles or would be PWS-KO. Mice were housed at room temperature at about 22° C. with 12 h light/dark cycles at 7 a.m. and 7 p.m. and ad-libitum access to food (4.5% crude fat) and water. Mice were weaned at 3 weeks old, genotyped using an ear snip, […]. ear tagged, and housed with littermates of the same sex. For tissue dissection, mice were euthanized by CO2 asphyxiation between 12 p.m. and 2 p.m.
Body weight, fat, and lean mass, rectal temperature, and food intake were measured weekly. For body weight, fat, and lean mass measurements, mice were weighed on Mondays using a standard scale, and then placed in a Bruker (Billrica, MA, USA) LF90 NMR machine using the mouse holder. Measurements were recorded in grams for fat and lean mass.
All values were expressed as mean+SEM unless indicated otherwise. Comparison of means between groups and calculation of p-values were made using JMP Pro15 software (Cary, NC, USA), with Tukey's post hoc analysis for multiple comparisons when overall p-values in the comparison were significant. For the responses of weight, fat, lean mass, temperature, and food intake shown in figures, a fitted least squares regression with effects of genotype, treatment, and genotype×treatment was analyzed for Week 12 data only. Responses of these dependent variables were also analyzed across the 12-week time period, adding in effects of week, week×treatment, and week×genotype. […] The responses that had pre-post measures (wheel running, elevated plus, fasting glucose, glucose tolerance) were analyzed separately for the pre and post time periods (no effect of time). Animals were grouped together for the pre time period, regardless of their assigned data, as all animals were on standard mouse chow at that time. […] Rotarod data were collected only during the post-period and analyzed with a response of time and effects of genotype, treatment, and genotype×treatment. For area-under-the-curve calculations, the formula function in JMP was used to calculate the area for individual animals pre and post, and then fit least squares regression model used for effects of genotype, treatment, and genotype×treatment.

Substance: conjugated linoleic acid [CLA]
- Home-cage activity [1]: not significant
- Rotarod balance and forward locomotion [2]: balance and forward locomotion improvement
- Body fat, WT control diet more than WT CLA diet ([3]; WT mice, end of study): ~4 g
- Reduction in body fat levels with treatment ([3]; all genotypes, vs control HFD alone): 3.6 fold
- Body weight, overall effect of CLA diet ([3]; all three genotypes, 20% fat diet, vs control diet): significant reductions in body weight overall for the three genotypes
- Body weight, post hoc per genotype ([3]; each genotype on CLA diet vs control diet): significant body weight reductions
- Lean mass, treatment effect ([3]; whole model, 12 weeks): without a treatment effect
